Experiment [1] addresses T1, human RARγ (Homo sapiens, UniProt P13631).
T1 sequence (P13631 1-454): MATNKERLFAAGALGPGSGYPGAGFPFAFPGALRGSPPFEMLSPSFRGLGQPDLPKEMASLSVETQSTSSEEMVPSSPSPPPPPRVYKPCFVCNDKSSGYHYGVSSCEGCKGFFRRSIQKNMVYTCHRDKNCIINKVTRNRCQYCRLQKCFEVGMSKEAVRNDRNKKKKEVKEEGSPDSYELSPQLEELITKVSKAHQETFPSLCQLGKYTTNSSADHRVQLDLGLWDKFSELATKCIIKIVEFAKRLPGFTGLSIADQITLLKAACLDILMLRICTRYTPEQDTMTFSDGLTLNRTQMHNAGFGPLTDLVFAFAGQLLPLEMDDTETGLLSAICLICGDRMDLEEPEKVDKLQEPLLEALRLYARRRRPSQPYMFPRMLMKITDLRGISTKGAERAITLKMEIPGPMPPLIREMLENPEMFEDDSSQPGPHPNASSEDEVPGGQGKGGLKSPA
As to the kind of experiment: RAR binding assay (inhibition of 3H-all-trans-retinoic acid binding), RAR-γ. Also on record: expressed in transfected cells. The following applies: nuclear extract of BHK cells expressing human RARγ, read-out: Receptor binding assay IC50 (nM) RAR-γ. On the procedure:
(§1) Cells constantly expressing RARα, β and γ proteins were prepared by introducing human RARα, β and γ genes into BHK (baby hamster kidney) cells. A nuclear fraction of these cells was used to construct an experimental system for measuring the specific binding of all-trans-retinoic acid to RAR, and in this experimental system, the ability of each test compound to bind to […] was examined by measuring the degree of inhibition of binding. Further, the ability of each test compound to bind to each receptor subtype was compared to determine the selectivity of the compound for RAR subtype.
(§2) 5×10^8 BHK cells having the RAR gene introduced into them were suspended in 15 ml solution A (5 mM sodium phosphate (pH 7.4), 10 mM monothioglycerol, 10% (v/v) glycerol, 1 mM phenyl methyl sulfonyl fluoride (PMSF), 10 μg/ml aprotinin, 25 μg/ml leupeptin), then homogenized therein and centrifuged, and the supernatant was removed. The resulting pellet was suspended in 15 ml buffer B (10 mM Tris-HCl (pH 8.5), 10 mM monothioglycerol, 10% (v/v) glycerol, 1 mM PMSF, 10 μg/ml aprotinin, 25 μg/ml leupeptin, 0.4 M potassium chloride), then left at 4° C. for 1 hour and ultracentrifuged at 100,000×g, 4° C. for 1 hour. The resulting supernatant was frozen and stored as a nuclear extract fraction at −80° C. until use (Methods in Enzymology, 189, 248).
(§3) 180 μl of the extract fraction and 10 μl diluted solution of all-trans-retinoic acid or a test compound were added to each well on a 96-well plate made of polypropylene, and further 10 μl of 10 nM ^3H-all-trans-retinoic acid was added thereto and left at 4° C. for 16 hours. 3% charcoal-0.3% dextran solution was added to the reaction solution and centrifuged whereby free ^3H-all-trans-retinoic acid was separated, and the count in the supernatant was determined by a scintillation counter. The count when a 500-fold excess of non-labeled all-trans-retinoic acid was added was subtracted as unspecific binding from the value obtained, to determine the amount of each compound binding specifically to RAR.
(§4) The concentration (IC50) of each compound at which the binding of ^3H-all-trans-retinoic acid was inhibited by 50% was determined and the results are shown in Tables 3-1 and 3-2.

The target in experiment [2] is T2, human RARα (Homo sapiens, UniProt P10276).
T2 sequence (P10276 1-462): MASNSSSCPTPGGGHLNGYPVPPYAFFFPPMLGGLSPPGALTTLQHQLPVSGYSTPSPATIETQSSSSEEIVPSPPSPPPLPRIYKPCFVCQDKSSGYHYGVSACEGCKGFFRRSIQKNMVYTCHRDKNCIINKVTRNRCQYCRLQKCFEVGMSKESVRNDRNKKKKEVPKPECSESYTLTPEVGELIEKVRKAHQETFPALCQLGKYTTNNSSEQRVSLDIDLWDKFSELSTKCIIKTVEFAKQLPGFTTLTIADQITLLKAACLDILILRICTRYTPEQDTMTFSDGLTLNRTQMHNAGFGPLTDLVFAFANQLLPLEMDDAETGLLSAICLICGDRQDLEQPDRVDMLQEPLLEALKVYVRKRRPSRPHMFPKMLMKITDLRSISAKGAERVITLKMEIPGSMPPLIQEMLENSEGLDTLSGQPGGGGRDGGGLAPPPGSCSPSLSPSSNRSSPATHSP
As to the kind of experiment: RAR binding assay (inhibition of 3H-all-trans-retinoic acid binding), RAR-α. Also on record: expressed in transfected cells. The following applies: nuclear extract of BHK cells expressing human RARα, read-out: Receptor binding assay IC50 (nM) RAR-α. Here is the method: as §1, §2, §3, §4

Experiment [3] concerns the target T3, human RARβ (Homo sapiens, UniProt P10826).
T3 sequence (P10826 1-455): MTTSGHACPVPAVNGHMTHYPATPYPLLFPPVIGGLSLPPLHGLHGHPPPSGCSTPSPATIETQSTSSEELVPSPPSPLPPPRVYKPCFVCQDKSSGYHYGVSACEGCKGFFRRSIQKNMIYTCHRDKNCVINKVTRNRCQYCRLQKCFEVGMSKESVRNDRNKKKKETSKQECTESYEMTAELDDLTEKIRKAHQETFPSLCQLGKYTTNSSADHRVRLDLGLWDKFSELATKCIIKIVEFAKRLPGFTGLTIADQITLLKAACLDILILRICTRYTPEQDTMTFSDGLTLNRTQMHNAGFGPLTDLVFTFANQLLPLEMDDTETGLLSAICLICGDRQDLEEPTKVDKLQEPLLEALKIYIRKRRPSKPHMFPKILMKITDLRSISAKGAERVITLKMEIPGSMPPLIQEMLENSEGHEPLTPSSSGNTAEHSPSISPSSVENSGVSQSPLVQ
Description: RAR binding assay (inhibition of 3H-all-trans-retinoic acid binding), RAR-β. Also on record: expressed in transfected cells. The following applies: nuclear extract of BHK cells expressing human RARβ, read-out: Receptor binding assay IC50 (nM) RAR-β. On the procedure:
as §1, §2, §3, §4

Experiment [4] deals with accelerated Masugi nephritis. As to the kind of experiment: Rat model with accelerated Masugi nephritis (proteins excreted in urine for 24 hours). In kind it is in vivo, Sprague-Dawley strain rats. The note with it: oral once every day, compared with the control group. On the procedure: Sprague-Dawley strain rats were immunized by subcutaneously administering rabbit γ-globulin in a dose of 4 mg/rat along with Freund's complete adjuvant into the bottoms of their both hind legs. On the 5th day after the rats were immunized, 1 ml of anti-rat glomerular basement membrane rabbit serum diluted 6- or 8-fold was administered via tail veins into the animals. On the 8th day, the rats were forced to be orally administered 8 ml sterilized water and then placed in a metabolism cage, and their urine was collected for 24 hours during which the animals were allowed neither food nor water. As the indicator of the model with accelerated Masugi nephritis, the amount of proteins excreted in urine for 24 hours was used.
The medium was administered into the control group.

Experiment [5] concerns anti-dinitrophenyl (DNP) IgG2a antibody titer. Description: Mouse model producing antibody (anti-DNP IgG2a antibody titer in serum, ELISA). The format is in vivo, BALB/c mice. The following applies: for effect on anti-DNP IgG2a: dose 0.1 mg/kg oral once every day for 10 days, 10th day after immunization. Here is the method:
BALB/c mice were immunized by administering dinitrophenylated keyhole limpet hemocyanin (DNP-KLH) as antigen intraperitoneally into them in a dose of 100 μg/mouse along with Freund's complete adjuvant. On the 10th day after the day on which the mice were immunized, blood was collected from the orbital venous plexus of the animals under anesthesia with ether and examined for anti-dintrophenyl (DNP) IgG2a antibody titer in serum by the ELISA method.
The test compounds B, E, F, G and H were suspended in 0.5% aqueous methyl cellulose solution and orally administered into the animals once every day for 10 days from the day when the animals were immunized with DNP-KLH. The medium was administered into the control group.
In general terms: ELISA stands for enzyme-linked immunosorbent assay.

For orientation: IC50 means the point on the concentration scale where inhibition reaches its midpoint.

With `O=C(O)c1ccc(-c2ccc(-c3cc4c(Cl)ccc(Cl)c4o3)[nH]2)cc1`, the half-maximal inhibitory concentration (IC50) in experiment [1] is greater than 500 nM; in experiment [2], 1 nM.

As for `O=C(O)c1ccc(-c2ccc(-c3cc4c(F)ccc(Cl)c4o3)[nH]2)cc1`, the IC50 is greater than 500 nM in experiment [1], greater than 500 nM in experiment [3] and 3.8 nM in experiment [2].

Consider `CC1(C)CCCc2ncc(-c3ccc(-c4ccc(C(=O)O)cc4)[nH]3)nc21` [Compound E, 4-{2-{5-[2-(8,8-dimethyl-5,6,7,8-tetrahydroquinoxalynyl)]pyrrolyl}}benzoic acid], for which the “Degree of Inhibition of Albuminuria (%)” value in experiment [4] (dose 1.0 mg/kg, 1 mg/kg) was determined as 85.8%. The “effect on anti-DNP IgG2a” value in experiment [5] is reported as “significantly inhibited”.

For `CC1CCCN(C)c2ccc(-c3ccc(-c4ccc(C(=O)O)cc4)[nH]3)cc21` (centres unmarked) [Compound F, 4-{2-{5-[7-(1,5-dimethyl-2,3,4,5-tetrahydro-1H-benzazepinyl)]pyrrolyl}}benzoic acid], the “Degree of Inhibition of Albuminuria (%)” value in experiment [4] (dose 1.0 mg/kg, 1 mg/kg) amounted to 71.1%. The “effect on anti-DNP IgG2a” value in experiment [5] is given as “significantly inhibited”.

Consider `COCc1cc2c(cc1-c1ccc(-c3ccc(C(=O)O)cc3)[nH]1)C(C)(C)CCC2(C)C` [Compound H, 4-{2-[5-(3-methoxymethyl-5,6,7,8-tetrahydro-5,5,8,8-tetramethylnaphthalene-2-yl)pyrrolyl}}benzoic acid], for which the “Degree of Inhibition of Albuminuria (%)” value in experiment [4] (dose 0.3 mg/kg, 0.3 mg/kg) is recorded as 61.3%. For the same compound, the “effect on anti-DNP IgG2a” value in experiment [5] is on record as “showed a tendency to inhibit”.

In the case of `C[Si](C)(C)c1cc(C(=O)Nc2ccc(C(=O)O)cc2)cc([Si](C)(C)C)c1` [Compound I, 4-{[(3,5-bistrimethylsilylphenyl)carbonyl]amino}benzoic acid], in experiment [4] (dose 1.0 mg/kg, 1 mg/kg), the “Degree of Inhibition of Albuminuria (%)” value amounted to 89.4%.

For the compound `CCn1nc(-c2ccc(-c3ccc(C(=O)O)cc3)[nH]2)cc1C(C)C` [G], in experiment [5], the “effect on anti-DNP IgG2a” value is recorded as “significantly inhibited”.

`Cc1ccc(C)c2oc(-c3ccc(-c4ccc(C(=O)O)cc4)[nH]3)cc12` [drawing 8]: the 50% inhibitory concentration (IC50) in experiment [1] was greater than 500 nM; in experiment [3], 340 nM; in experiment [2], 1.4 nM.

Take `O=C(O)c1ccc(-c2ccc(-c3cc4c(C(F)(F)F)ccc(F)c4o3)[nH]2)cc1` [drawing 11]: the IC50 in experiment [1] was found to be 195 nM; in experiment [3], 107 nM; in experiment [2], 0.6 nM.

On to `Cc1ccc(C)c2c(F)c(-c3ccc(-c4ccc(C(=O)O)cc4)[nH]3)oc12` [drawing 12], for which the IC50 is 225 nM in experiment [1], 49 nM in experiment [3] and less than 0.5 nM in experiment [2].

As to `CCc1ccc(C)c2cc(-c3ccc(-c4ccc(C(=O)O)cc4)[nH]3)oc12` [drawing 13], the figures for the IC50 in experiment [1], in experiment [3] and in experiment [2] were 270 nM, 160 nM and less than 0.5 nM, respectively.

As for `CC1(C)CCC(C)(C)c2nc(-c3ccc(-c4ccc(C(=O)O)cc4)[nH]3)cnc21` [drawing 14], the IC50 stood at 140 nM in experiment [1], 56 nM in experiment [3] and 0.6 nM in experiment [2].

Turning to `CC1CCCN(C)c2ncc(-c3ccc(-c4ccc(C(=O)O)cc4)[nH]3)nc21` (centres unmarked) [drawing 16], the half-inhibitory concentration (IC50) in experiment [1] was determined as 130 nM; in experiment [3] it was 58 nM; in experiment [2], 1 nM.

For the compound `COCc1cc2c(cc1-c1ccc(-c3ccc(C(=O)O)cc3)[nH]1)C(C)(C)CCC2(C)C` [drawing 18], the IC50 in experiment [1] worked out at 83 nM; in experiment [3] it was 230 nM; in experiment [2] it was 10 nM.

For `C[Si](C)(C)c1cc(C(=O)Nc2ccc(C(=O)O)cc2)cc([Si](C)(C)C)c1` [drawing 19], the IC50 in experiment [1] was greater than 500 nM; in experiment [3], greater than 500 nM; in experiment [2] it was 6.4 nM.

Consider `CCOC(=O)/C=C(C)/C=C/C=C(C)/C=C/c1c(C)cc(OC)c(C)c1C` [etretinate, reference compound], for which the “effect on production of anti-DNP antibody” value in experiment [5] (50 mg/kg, administered in the same manner as the test compounds) is “showed a tendency to inhibit”.

The values are drawn from patent US6355669B1, “Retinoic acid agonists as preventive and therapeutic agents for nephritis” (Eisai Co., Ltd., priority 1997, dated 2002).
